Here are results for six compounds from US11299496B2, “Ligands for alpha-7 nicotinic acetylcholine receptors and methods of treating neurological and inflammatory conditions” (Northeastern University, priority 2014, dated 2022).

One series addresses alpha-7 nAChRs (Homo sapiens, UniProt P36544). Particulars: cited from earlier work.
Another series in a line: Solubility comparison. In kind it is physicochemical.
Series [1] addresses T1, human alpha-7 nAChR (Homo sapiens, UniProt P36544).
T1 construct: expressed in transfected cells; host or cells: Xenopus laevis oocytes (cRNA injection)
Briefly: Two-electrode voltage clamp of alpha-7 nAChR expressed in Xenopus oocytes (net charge). The note with it: for Charge Alone: compound alone acting as an allosteric agonist; for Charge Alone / Charge +C: area under the curve of current vs. time; for Charge +C: compound together with choline or ACh, includes PAM and ago-PAM activity. It is filed as cell-based. In a few lines: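 Human α7 nAChR co-expressed with RIC-3 in Xenopus oocytes; two-electrode clamp at −60 mV, 12 s applications in Ringer's pH 7.3. Net charge integrated over 120 s from application, normalized to prior ACh controls; measured for compound alone and with choline or ACh; n≥4 oocytes.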

The target in series [2] is T1, human alpha-7 nAChR. As to the kind of experiment: Electrophysiological evaluation of PAMs and ago-PAMs in Xenopus oocytes (direct activation, direct and primed potentiation). In kind it is cell-based. Particulars: for direct activation when applied alone / primed potentiation of subsequent responses to ACh applied alone: FIGS. 2A-2F; for peak efficacy in the presence of ACh: GAT154 vs GAT155. The source says: Electrophysiological evaluation in Xenopus oocytes was used to determine the potency and efficacy with which PAMs and ago-PAMs of the invention produce self-induced agonism and positive allosteric modulation of the orthosteric, agonist-induced activation of the alpha-7 nAChR. The ability of these compounds to increase the maximal channel influx and to enhance the activity of the receptor on its own as well as in presence of choline is denoted by Imax and EC50 respectively. The details of cDNA clones and RNA for injection was as published. Thakur et. al. 2013, J. Med. Chem. 2013 Nov. 14; 56(21):8943-7. doi: 10.1021/jm401267t). For experiments involving PAM and ago-PAM analogs, where standard levels of expression result in ion currents too large to be recorded in voltage clamp, experiments were typically conducted 1-3 days after RNA injection.
Two-electrode voltage clamp was conducted using OpusXpress 6000A (Molecular Devices, Union City, Calif.). Both the voltage and current electrodes were filled with 3 M KCl. Oocytes were voltage-clamped at −60 mV except when determining the effect of voltage on channel activation. The oocytes were bath-perfused with Ringer's solution (115 mM NaCl, 2.5 mM KCl, 1.8 mM CaCl2, 10 mM HEPES, and 1 μM atropine, pH 7.2) with a flow rate of 2 mL/min. To evaluate the effects of experimental compounds on ACh-evoked responses of alpha-7 nAChRs expressed in oocytes, the initial control responses were measured with two applications of ACh alone, before applications of experimental drugs alone or co-applications with ACh. The agonist solutions were applied from a 96-well plate via disposable tips, and the drugs were either co-applied with ACh by the OpusXpress pipette delivery system or bath-applied using the OpusXpress system to switch the running buffer. Drug applications were for 12 s followed by a 181 s washout period and usually alternated between controls and test solutions. After experimental drug applications, follow-up control applications of ACh were made to determine primed potentiation, desensitization or rundown of the receptors. Data were collected at 50 Hz, filtered at 20 Hz, analyzed by Clampfit 9.2 (Molecular Devices) and Excel (Microsoft, Redmond Wash.), and normalized to the averaged current of the two initial control responses. Data were expressed as mean±SEM from at least four oocytes for each experiment. For the concentration-response relationships, responses were normalized to the net charge of the most adjacent prior control.
A detailed comparative activity profile of select ago-PAMs/PAMs based on the structure of 4BP-TQS was obtained. […] They also functioned as direct PAMs, producing responses when co-applied with ACh. However, the primed potentiation of response to ACh alone was less after direct potentiation than after direct activation, due to residual induction of PAM-insensitive desensitization.

The test system of a further series is CCI mice. As to the kind of experiment: Chronic constriction injury (CCI) model, mechanical allodynia (von Frey). In kind it is in vivo, mouse. The note with it: for threshold for pain in the CCI model: dose of 1 mg/kg, FIG. 5B. The procedure:
Mice were anesthetized with pentobarbital (45 mg/kg, i.p.). An incision was made just below the hipbone, parallel to the sciatic nerve. The right common sciatic nerve was exposed at the level proximal to the sciatic trifurcation, and a nerve segment 3-5 mm long was separated from surrounding connective tissue. Two loose ligatures with 6-0 silk suture were made around the nerve with a 1.0-1.5 mm interval between them. Muscles were closed with suture thread and the wound with wound clips. […] Any suture that remained after two weeks was removed from the healed surgical wound. Mechanical allodynia (von Frey test) was measured before and after drug injections.
The antiallodynic effects of test compounds were assessed in three experiments consisting of CCI mice and sham control mice. […] The anti-allodynic effects of alpha-7 nAChRs PAMs and ago-PAMs were tested (four doses and vehicle control, N=10 mice/group, administered i.p.) in the CCI model. Mice were assessed for mechanical allodynia 2 weeks after the CCI surgery. All these studies will be conducted in blinded manner. CCI and sham control mice received two conditioning sessions per day (vehicle in the morning and drug in the afternoon) over the course of 3 days, and were tested for a place preference on day 7 without any injections.
Pain behavioral data are presented as mean±S.E.M. (see FIGS. 5A and 5B). Statistical analysis was performed using the t-test or two-way analysis of variance test, followed by the post-hoc Bonferroni's test. All differences were considered significant at p<0.05, and significant differences are shown with asterisks in FIGS. 5A and 5B. ED50 values with 95% confidence limits (CL) were calculated by unweighted least-squares linear regression.

T1 sequence (P36544 23-502): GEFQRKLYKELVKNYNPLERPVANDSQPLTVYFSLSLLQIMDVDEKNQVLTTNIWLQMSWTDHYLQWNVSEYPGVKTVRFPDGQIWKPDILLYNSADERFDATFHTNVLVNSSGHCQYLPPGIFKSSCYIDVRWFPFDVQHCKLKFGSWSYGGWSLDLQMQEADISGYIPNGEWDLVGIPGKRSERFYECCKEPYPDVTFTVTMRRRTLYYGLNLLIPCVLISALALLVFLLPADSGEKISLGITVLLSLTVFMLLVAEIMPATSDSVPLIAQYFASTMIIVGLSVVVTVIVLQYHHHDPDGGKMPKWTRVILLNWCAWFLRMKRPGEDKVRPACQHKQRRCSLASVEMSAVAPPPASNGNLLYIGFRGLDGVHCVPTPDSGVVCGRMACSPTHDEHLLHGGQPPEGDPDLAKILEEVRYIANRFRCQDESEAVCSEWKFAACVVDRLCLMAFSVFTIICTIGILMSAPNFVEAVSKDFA
Sequence of alpha-7 nAChRs (P36544 23-502): as above

For the compound `NS(=O)(=O)c1ccc2c(c1)C1C=CCC1C(c1ccc(Br)cc1)N2` (racemic) [Compound 4BP-TQS, 4-(4-bromophenyl)-3a,4,5,9b-tetrahydro-3H-cyclopenta[c]quinoline-8-sulfonamide], the “maximal response larger than ACh” value at alpha-7 nAChRs (agonist efficacy relative to ACh) was 45 fold. The “EC50 lower than ACh” value at alpha-7 nAChRs (agonist potency relative to ACh) is 8 fold.

As to `NS(=O)(=O)c1ccc2c(c1)[C@H]1C=CC[C@H]1[C@@H](c1ccc(Br)s1)N2` (stereo in doubt) [Compound 36, 4-(5-bromothiophen-2-yl)-3a,4,5,9b-tetrahydro-3H-cyclopenta[c]quinoline-8-sulfonamide], the “solubility compared to GAT107” value in the series “Solubility comparison” is on record as “significantly better solubility compared to GAT107”. On human alpha-7 nAChR [1], the “Charge Alone” value is listed as 48 and the “Charge +C” value came out at 1145. On human alpha-7 nAChR [2], the “direct activation when applied alone” value is listed as “directly activated human alpha-7 nAChR”, the “primed potentiation of subsequent responses to ACh applied alone” value is given as “large primed potentiation” and the “peak efficacy in the presence of ACh” value is “almost equal peak efficacy”. Moreover, the “reversal of CCI effect” value in the series with CCI mice (1 mg/kg) is “completely reversed the effect”. In addition, the “threshold for pain in the CCI model” value with CCI mice is listed as “effective in increasing the threshold for pain”. In the series with CCI mice (same dose of 1 mg/kg), the “effectiveness relative to GAT155 in the CCI model” value was “twice as effective at every time point”. For the same compound, in the series on CCI mice (sham control mice), the “effect on sham mice” value was “without showing any significant effect on the sham mice”.

On to `NS(=O)(=O)c1ccc2c(c1)[C@H]1C=CC[C@H]1[C@@H](c1cc(Br)cs1)N2` (stereo in doubt) [Compound 37, 4-(4-bromothiophen-2-yl)-3a,4,5,9b-tetrahydro-3H-cyclopenta[c]quinoline-8-sulfonamide], for which the “solubility compared to GAT107” value in “Solubility comparison” is reported as “significantly better solubility compared to GAT107”. Further, at human alpha-7 nAChR [1], the “Charge Alone” value was 0 and the “Charge +C” value is 163. Moreover, at human alpha-7 nAChR [2], the “direct activation when applied alone” value was “negligible direct activation”, the “primed potentiation of subsequent responses to ACh applied alone” value is recorded as “large primed potentiation” and the “peak efficacy in the presence of ACh” value was “almost equal peak efficacy”. In addition, in the series with CCI mice, the “threshold for pain in the CCI model” value was “effective in increasing the threshold for pain”.

Consider `CC(C)(C)CC(=O)Nc1ccc([C@H]2Nc3ccc(S(N)(=O)=O)cc3[C@H]3C=CC[C@H]32)cc1` (stereo in doubt) [Compound 64, 3,3-dimethyl-N-(4-(8-sulfamoyl-3a,4,5,9b-tetrahydro-3H-cyclopenta[c]quinolin-4-yl)phenyl)butanamide], for which, at human alpha-7 nAChR [1], the “Charge Alone” value is on record as 597 and the “Charge +C” value worked out at 652. Moreover, on human alpha-7 nAChR [2], the “effectiveness as ago-PAM compared to GAT154” value was “almost equally effective as ago-PAMs” and the “effectiveness as allosteric agonist compared to GAT154” value is reported as “more effective as allosteric agonists”.

In the case of `CC(C)(C)NC(=O)Oc1ccc([C@H]2Nc3ccc(S(N)(=O)=O)cc3[C@H]3C=CC[C@H]32)cc1` (stereo in doubt) [Compound 65, 4-(8-sulfamoyl-3a,4,5,9b-tetrahydro-3H-cyclopenta[c]quinolin-4-yl)phenyl tert-butylcarbamate], at human alpha-7 nAChR [1], the “Charge Alone” value turned out to be 332 and the “Charge +C” value is listed as 740. Moreover, on human alpha-7 nAChR [2], the “effectiveness as ago-PAM compared to GAT154” value is “almost equally effective as ago-PAMs” and the “effectiveness as allosteric agonist compared to GAT154” value is recorded as “more effective as allosteric agonists”.

Turning to `CC(C)(C)OC(=O)Nc1ccc([C@H]2Nc3ccc(S(N)(=O)=O)cc3[C@H]3C=CC[C@H]32)cc1` [Compound 24], on human alpha-7 nAChR [1], the “Charge Alone” value came out at 212 and the “Charge +C” value was 580. The “'ago' component / ago-PAM activity” value on human alpha-7 nAChR [1] (in words) was “increased ‘ago’ component”. The “types of activity (direct activation, direct potentiation, primed potentiation)” value on human alpha-7 nAChR [2] is listed as “exhibited all three types of activities”.
